Species on record: Rattus norvegicus
Assay: DrugMatrix - Regimen: Daily Repeat
Format: toxicity, organism-based, Sprague-Dawley
Set-up: regimen Daily Repeat, gender Male, age 6-8 weeks
Conditions: in vivo, po, route oral GAVAGE, vehicle .5 % CMC; for ABSOLUTE BASOPHIL / ABSOLUTE EOSINOPHIL / ABSOLUTE LYMPHOCYTE / ABSOLUTE MONOCYTE / ABSOLUTE SEGMENTED NEUTROPHIL / BASOPHIL / EOSINOPHIL / ERYTHROCYTE COUNT / HEMATOCRIT / HEMOGLOBIN / LEUKOCYTE COUNT / LYMPHOCYTE / MEAN CORPUSCULAR HEMOGLOBIN / MEAN CORPUSCULAR HEMOGLOBIN CONCENTRATION / MEAN CORPUSCULAR VOLUME / MONOCYTE / NEUTROPHIL / NUCLEATED RED BLOOD CELLS / PLATELET COUNT: tissue Blood; for ALANINE AMINOTRANSFERASE / ALBUMIN / ALKALINE PHOSPHATASE / ASPARTATE AMINOTRANSFERASE / BLOOD UREA NITROGEN / CARBON DIOXIDE / CHLORIDE / CHOLESTEROL / CREATINE PHOSPHOKINASE / CREATININE / GLUCOSE / LACTATE DEHYDROGENASE / LIPASE / PHOSPHORUS / POTASSIUM / SODIUM / TOTAL BILIRUBIN / TOTAL PROTEIN / URIC ACID: tissue Plasma
[1] = 0 mg/kg, 72 h, dose level Control, time 3 day
[2] = 0 mg/kg, 120 h, dose level Control, time 5 day
[3] = 2000 mg/kg, 72 h, dose level High, time 3 day

In the case of `O=C1Nc2ccc(Cl)cc2C(c2ccccc2Cl)=NC1O` (centres undefined) [LORAZEPAM], the “ABSOLUTE BASOPHIL” value [1] is reported as 0 CELLS/uL, the “ABSOLUTE EOSINOPHIL” value [1] is reported as 171.33 CELLS/uL and the “ABSOLUTE LYMPHOCYTE” value [1] is reported as 13776.5 CELLS/uL. For the same compound, the “ABSOLUTE MONOCYTE” value [1] was 180.83 CELLS/uL, the “ABSOLUTE SEGMENTED NEUTROPHIL” value [1] was 1121.33 CELLS/uL and the BASOPHIL [1] was 0%. For the same compound, the EOSINOPHIL [1] was 1%, the “ERYTHROCYTE COUNT” value [1] was 5.56 x10E6/uL and the HEMATOCRIT [1] was 34.75%. For the same compound, the HEMOGLOBIN [1] was 13.68 G/DL, the “LEUKOCYTE COUNT” value [1] was 15.25 x10E3/uL and the LYMPHOCYTE [1] was 90.17%. The “MEAN CORPUSCULAR HEMOGLOBIN” value [1] was 24.6 pg, the “MEAN CORPUSCULAR HEMOGLOBIN CONCENTRATION” value [1] was 39.4 G/DL and the “MEAN CORPUSCULAR VOLUME” value [1] was 62.48 fL. For the same compound, the MONOCYTE [1] was 1.17%, the NEUTROPHIL [1] was 7.67% and the “NUCLEATED RED BLOOD CELLS” value [1] was 0 /100WBC. For the same compound, the “PLATELET COUNT” value [1] was 1342 x10E3/uL, the “ALANINE AMINOTRANSFERASE” value [1] was 49.67 u/L and the ALBUMIN [1] was 4.15 G/DL. For the same compound, the “ALKALINE PHOSPHATASE” value [1] was 346.83 u/L, the “ASPARTATE AMINOTRANSFERASE” value [1] was 108.17 u/L and the “BLOOD UREA NITROGEN” value [1] was 17.33 mg/dL. The “CARBON DIOXIDE” value [1] was 25 mmol/L, the CHLORIDE [1] was 100.83 MEQ/L and the CHOLESTEROL [1] was 66.83 mg/dL. The “CREATINE PHOSPHOKINASE” value [1] was 788 u/L, the CREATININE [1] was 0.18 mg/dL and the GLUCOSE [1] was 151.67 mg/dL. For the same compound, the “LACTATE DEHYDROGENASE” value [1] was 982.5 u/L, the LIPASE [1] was 10.33 u/L and the PHOSPHORUS [1] was 11.23 mg/dL. The POTASSIUM [1] was 6.37 MEQ/L, the SODIUM [1] was 141.02 MEQ/L and the “TOTAL BILIRUBIN” value [1] was 0.18 mg/dL. The “TOTAL PROTEIN” value [1] was 5.9 G/DL, the “URIC ACID” value [1] was 1.8 mg/dL and the “ABSOLUTE BASOPHIL” value [2] was 0 CELLS/uL. The “ABSOLUTE EOSINOPHIL” value [2] was 69 CELLS/uL, the “ABSOLUTE LYMPHOCYTE” value [2] was 13632.83 CELLS/uL and the “ABSOLUTE MONOCYTE” value [2] was 139.83 CELLS/uL. For the same compound, the “ABSOLUTE SEGMENTED NEUTROPHIL” value [2] was 1225 CELLS/uL, the BASOPHIL [2] was 0% and the EOSINOPHIL [2] was 0.33%. For the same compound, the “ERYTHROCYTE COUNT” value [2] was 5.52 x10E6/uL, the HEMATOCRIT [2] was 33.98% and the HEMOGLOBIN [2] was 13.22 G/DL. For the same compound, the “LEUKOCYTE COUNT” value [2] was 15.07 x10E3/uL, the LYMPHOCYTE [2] was 90.83% and the “MEAN CORPUSCULAR HEMOGLOBIN” value [2] was 23.95 pg. The “MEAN CORPUSCULAR HEMOGLOBIN CONCENTRATION” value [2] was 38.9 G/DL, the “MEAN CORPUSCULAR VOLUME” value [2] was 61.53 fL and the MONOCYTE [2] was 0.83%. For the same compound, the NEUTROPHIL [2] was 8%, the “NUCLEATED RED BLOOD CELLS” value [2] was 0 /100WBC and the “PLATELET COUNT” value [2] was 1196 x10E3/uL. The “ALANINE AMINOTRANSFERASE” value [2] was 49.17 u/L, the ALBUMIN [2] was 4.2 G/DL and the “ALKALINE PHOSPHATASE” value [2] was 352.33 u/L. The “ASPARTATE AMINOTRANSFERASE” value [2] was 89.67 u/L, the “BLOOD UREA NITROGEN” value [2] was 18 mg/dL and the “CARBON DIOXIDE” value [2] was 27.67 mmol/L. For the same compound, the CHLORIDE [2] was 101 MEQ/L, the CHOLESTEROL [2] was 72.83 mg/dL and the “CREATINE PHOSPHOKINASE” value [2] was 417.5 u/L. For the same compound, the CREATININE [2] was 0.18 mg/dL, the GLUCOSE [2] was 150.5 mg/dL and the “LACTATE DEHYDROGENASE” value [2] was 517.33 u/L. The LIPASE [2] was 9 u/L, the PHOSPHORUS [2] was 11.87 mg/dL and the POTASSIUM [2] was 6.57 MEQ/L. The SODIUM [2] was 143.62 MEQ/L, the “TOTAL BILIRUBIN” value [2] was 0.2 mg/dL and the “TOTAL PROTEIN” value [2] was 6.08 G/DL. The “URIC ACID” value [2] was 1.45 mg/dL, the “ABSOLUTE BASOPHIL” value [3] was 0 CELLS/uL and the “ABSOLUTE EOSINOPHIL” value [3] was 93.33 CELLS/uL. The “ABSOLUTE LYMPHOCYTE” value [3] was 11320 CELLS/uL, the “ABSOLUTE MONOCYTE” value [3] was 259.33 CELLS/uL and the “ABSOLUTE SEGMENTED NEUTROPHIL” value [3] was 1294 CELLS/uL. For the same compound, the BASOPHIL [3] was 0%, the EOSINOPHIL [3] was 0.67% and the “ERYTHROCYTE COUNT” value [3] was 6.11 x10E6/uL. For the same compound, the HEMATOCRIT [3] was 38.6%, the HEMOGLOBIN [3] was 15.07 G/DL and the “LEUKOCYTE COUNT” value [3] was 12.97 x10E3/uL. For the same compound, the LYMPHOCYTE [3] was 87.33%, the “MEAN CORPUSCULAR HEMOGLOBIN” value [3] was 24.63 pg and the “MEAN CORPUSCULAR HEMOGLOBIN CONCENTRATION” value [3] was 39.03 G/DL. The “MEAN CORPUSCULAR VOLUME” value [3] was 63.1 fL, the MONOCYTE [3] was 2% and the NEUTROPHIL [3] was 10%. For the same compound, the “NUCLEATED RED BLOOD CELLS” value [3] was 0 /100WBC, the “PLATELET COUNT” value [3] was 1214.33 x10E3/uL and the “ALANINE AMINOTRANSFERASE” value [3] was 72.67 u/L. The ALBUMIN [3] was 4.4 G/DL, the “ALKALINE PHOSPHATASE” value [3] was 338 u/L and the “ASPARTATE AMINOTRANSFERASE” value [3] was 105.33 u/L. The “BLOOD UREA NITROGEN” value [3] was 24 mg/dL, the “CARBON DIOXIDE” value [3] was 21.33 mmol/L and the CHLORIDE [3] was 99.33 MEQ/L. The CHOLESTEROL [3] was 119.67 mg/dL, the “CREATINE PHOSPHOKINASE” value [3] was 966.67 u/L and the CREATININE [3] was 0.22 mg/dL. For the same compound, the GLUCOSE [3] was 161.67 mg/dL, the “LACTATE DEHYDROGENASE” value [3] was 346.33 u/L and the LIPASE [3] was 16.67 u/L. The PHOSPHORUS [3] was 10.23 mg/dL, the POTASSIUM [3] was 5.79 MEQ/L and the SODIUM [3] was 140.87 MEQ/L. The “TOTAL BILIRUBIN” value [3] was 0.27 mg/dL, the “TOTAL PROTEIN” value [3] was 6.23 G/DL and the “URIC ACID” value [3] was 1.5 mg/dL.

— ChEMBL document CHEMBL3885881, “DrugMatrix”
